Results: patent US20160215306A1 (priority 2013, published 2016)
Values after ≈ are worked out from the molar mass of the structure shown. Where two headings read alike, the source gives them in different places.

How the values were obtained:
[1] = tested on: recombinant β-glucosidase (GO16L, IFF); experiment: Cleavage of glucose from resveratrol glucosides by recombinant β-glucosidase; type: biochemical; details: 1 - β-glucosidase (IFF)
[2] = tested on: Depol™ cellulase (Biocatalysts); experiment: Cleavage of glucose from resveratrol glucosides by Depol cellulase; type: biochemical; details: 2 - Depol IFF (cellulase)
Glusulase = experiment: Cleavage of glucose from resveratrol glucosides by Glusulase; type: biochemical; details: 4 - Glusulase
[3] = tested on: β-galactosidase from A. oryzae; experiment: Cleavage of glucose from resveratrol glucosides by β-galactosidase; type: biochemical; details: 6 - β-galactosidase A. oryzae
β-glucuronidase = experiment: Cleavage of glucose from resveratrol glucosides by β-glucuronidase; type: biochemical; details: 7 - β-glucuronidase
EXG1 [4] = target: T1, EXG1 (Saccharomyces cerevisiae, UniProt P23776); experiment: Cleavage of glucose from resveratrol glucosides by broth enriched with EXG1; type: biochemical, S. cerevisiae; details: 8 - EXG1 broth
T1 sequence (P23776 41-448): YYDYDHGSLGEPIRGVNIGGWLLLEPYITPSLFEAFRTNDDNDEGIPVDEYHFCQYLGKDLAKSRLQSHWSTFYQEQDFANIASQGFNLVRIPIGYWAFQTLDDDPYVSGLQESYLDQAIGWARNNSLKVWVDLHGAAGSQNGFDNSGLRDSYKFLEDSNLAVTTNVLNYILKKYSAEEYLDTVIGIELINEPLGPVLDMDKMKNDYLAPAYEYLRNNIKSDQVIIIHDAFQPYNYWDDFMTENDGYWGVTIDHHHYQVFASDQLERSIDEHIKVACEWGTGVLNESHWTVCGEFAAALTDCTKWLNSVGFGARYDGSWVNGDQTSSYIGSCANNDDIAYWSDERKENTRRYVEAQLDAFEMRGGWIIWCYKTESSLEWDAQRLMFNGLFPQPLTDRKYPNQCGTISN

[5] = Solubility in water of purified compounds (H2O saturation, HPLC quantification); details: for solubility at 1 min: water, thermodynamic from solid
[6] = Separate experiment: plasma levels after single oral or IV administration, LC-MS; details: for Plasma level of the administered compound after IV administration / Plasma level of the administered compound after oral administration: single dose 10 mL/kg, FIG. 21
[7] = Pharmacokinetic profiling: plasma levels after single IV or oral administration; type: in vivo, CD1 male mice
Cellulase T. reesei = type: biochemical
Cellobiase from A. niger = type: biochemical
[8] = in water; cited from earlier work
EXG1 [9] = target: EXG1 (Saccharomyces cerevisiae, UniProt P23776); experiment: Cleavage of piceid by S. cerevisiae cells with or without EXG1; details: S. cerevisiae cells with functional EXG1, 125 mg/L piceid, overnight
EXG1 [10] = experiment: as above; details: second S. cerevisiae strain (lacking EXG1), 125 mg/L piceid, overnight
[11] = mouse, in vivo
[12] = male, CD1, mouse, plasma, intravenous, 10 mg/kg

| Molecule | % cleavage in conditions tested [1] | % cleavage in conditions tested [2] | % cleavage in conditions tested (Glusulase) | % cleavage in conditions tested [3] | % cleavage in conditions tested (β-glucuronidase) | % cleavage in conditions tested (EXG1 [4]) | Plasma level of the administered compound after IV administration [6] | Plasma level of the administered compound after oral administration [6] | % cleavage in conditions tested (Cellulase T. reesei) | % cleavage in conditions tested (Cellobiase from A. niger) | Solubility mg/L (Literatrure) [8] | solubility at 1 min [5] | other results |
| --- | --- | --- | --- | --- | --- | --- | --- | --- | --- | --- | --- | --- | --- |
| OC[C@H]1O[C@@H](Oc2ccc(/C=C/c3cc(O)cc(O)c3)cc2)[C@H](O)[C@@H](O)[C@@H]1O (relative stereo) [Resveratroloside, trans-resveratrol-4′-O-β-glucoside] | ✓ (✓ = >95%) | ✓ (✓ = >95%) | ✓ (✓ = >95%) | ✓ (✓ = >95%) | ✓ (✓ = >95%) | • (• = 5-49%) | low | low |  |  |  |  | Solubility mg/L (in house) ([5]; in nanopure H2O, HPLC): 1,300 mg/L; Plasma levels of resveratrol after administration of the glucoside ([6]; oral and IV administration): a sharp increase in resveratrol |
| OC[C@H]1O[C@@H](Oc2cc(O)cc(C=Cc3ccc(O)cc3)c2)[C@H](O)[C@@H](O)[C@@H]1O [Piceid, resveratrol 3-O-β-D-glucopyranoside] | ✓ (✓ = >95%) | ✓ (✓ = >95%) | ✓ (✓ = >95%) | ✓ (✓ = >95%) | ✓ (✓ = >95%) | ♦ (♦ = 50-95%) |  | detected at a low level | ✓ (key: ✓ = >95%; ♦ = 50-95%; • = 5-49%; X = 0%) | ✓ (key: ✓ = >95%; ♦ = 50-95%; • = 5-49%; X = 0%) | 69 mg/L (≈ 177 µM) | 200 to 300 µg/mL (≈ 512 to 768 µM) | Detection of administered compound in plasma after IV administration ([7]; 10 mg/kg IV): detectable; Detection of administered compound in plasma after oral administration ([7]; 10 mg/kg PO): detectable; Systemic conversion to trans-resveratrol ([7]; after IV and oral administration): converted to trans-resveratrol systemically; concentration at 0.25 h ([7]; male, CD1, mouse, plasma, piceid 10 mg/kg IV, 0.25 h, read-out: Piceid (Detection of piceid) in plasma, IV): 2830 ng/mL; concentration at 0.5 h ([7]; male, CD1, mouse, plasma, piceid 10 mg/kg IV, 0.5 h, read-out: Piceid (Detection of piceid) in plasma, IV): 320 ng/mL; concentration at 1 h ([7]; male, CD1, mouse, plasma, piceid 10 mg/kg IV, read-out: Piceid (Detection of piceid) in plasma, IV): 50 ng/mL; concentration at 0.5 h ([7]; male, CD1, mouse, plasma, piceid 10 mg/kg PO, 0.5 h, read-out: Piceid (Detection of piceid) in plasma, PO): 5 ng/mL; concentration at 1 h ([7]; male, CD1, mouse, plasma, piceid 10 mg/kg PO, read-out: Piceid (Detection of piceid) in plasma, PO): 8 ng/mL; concentration at 2 h ([7]; male, CD1, mouse, plasma, piceid 10 mg/kg PO, 2 h, read-out: Piceid (Detection of piceid) in plasma, PO): 4 ng/mL; Piceid cleaved, yielding resveratrol (EXG1 [9]): approximately 25%; Piceid cleaved (EXG1 [10]): less than 0.5%; Piceid detected in plasma after IV administration ([6]; piceid 17.1 mg/kg IV): approximately 900 ng/mL |
| Oc1ccc(C=Cc2cc(O)cc(O)c2)cc1 [Resveratrol, 3,5,4′-trihydroxy-stilbene] |  |  |  |  |  |  | an increase in resveratrol plasma levels appeared 4 h post-administration | cleared quickly |  |  | 15 to 30 mg/L | 30 to 40 µg/mL (≈ 131 to 175 µM) | concentration at 0.25 h [7, 12]: 40 ng/mL; concentration at 0.5 h [7, 12]: 4 ng/mL |
| cis/trans-resveratrol-3,5-di-O-β-glucoside [3,5-resveratrol diglucoside] | ✓ (✓ = >95%) | ✓ (✓ = >95%) | ✓ (✓ = >95%) | ✓ (✓ = >95%) | ✓ (✓ = >95%) | • (• = 5-49%) |  |  | ✓ (key: ✓ = >95%; ♦ = 50-95%; • = 5-49%; X = 0%) | ✓ (key: ✓ = >95%; ♦ = 50-95%; • = 5-49%; X = 0%) |  |  | Time of highest plasma level of administered compound, IV ([11]; iv): 1 h; Time within which plasma level declined, IV ([11]; iv): ≤ 4 h; Plasma level of the administered compound after oral administration ([11]; po): high levels; Time within which plasma level declined, oral ([11]; po): ≤ 3 h |
| OC[C@H]1O[C@@H](Oc2ccc(/C=C/c3cc(O)cc(O[C@@H]4O[C@H](CO)[C@@H](O)[C@H](O)[C@H]4O)c3)cc2)[C@H](O)[C@@H](O)[C@@H]1O (relative stereo) [3,4′-resveratrol diglucoside, trans-resveratrol-3,4′-di-O-β-glucoside] | ✓ (✓ = >95%) | ✓ (✓ = >95%) | ✓ (✓ = >95%) | ✓ (✓ = >95%) | ✓ (✓ = >95%) | ♦ (♦ = 50-95%) |  |  | ✓ (key: ✓ = >95%; ♦ = 50-95%; • = 5-49%; X = 0%) | ✓ (key: ✓ = >95%; ♦ = 50-95%; • = 5-49%; X = 0%) |  |  | Plasma level relative to 3,5-resveratrol diglucoside, oral ([11]; po): approximately 3 fold; Time within which compound was cleared from plasma, oral ([11]; po): ≤ 1 h |
